In data set [1] the target is T1, human recombinant glutaminyl cyclase (hQC) (Homo sapiens, UniProt Q16769).
T1 construct: purchased Eurogentec AS-72230
The data set can be described thus: In vitro determination of human QC inhibitory activity (SensoLyte Green Glutaminyl Cyclase Activity Assay Kit). The format is biochemical. On the procedure:
Basic statistical analysis was performed.

Data set [2] can be described thus: Parallel artificial membrane permeation assay for blood-brain barrier (PAMPA-BBB). The format is in vitro ADME, porcine. The note with it: for Papp: pig, PBS:EtOH (70:30), read-out: Blood-brain barrier permeability Pe; for CNS prediction: predictive penetration in the CNS from Pe. The protocol:
A parallel artificial membrane permeation assay for blood-brain barrier (PAMPA-BBB) was used to evaluate the brain penetration of compounds of formula I, following the method described by L. Di et al., “High throughput artificial membrane permeability assay for blood-brain barrier”, European Journal of Medicinal Chemistry 2003, vol. 38. pp. 223-232. The in vitro permeability (Pe) of the test compounds through a lipid extract of porcine brain membrane was determined. Assayed compounds were tested using a mixture of PBS:EtOH (70:30). Assay validation was made by comparing the experimental and reported permeability values of a set of fourteen commercial drugs and a lineal correlation between experimental and reported permeability values of the fourteen commercial drugs was obtained (y=1.678 x−1.447; R^2=0.9313). From this equation and taking into account the limits established by Di et al. for BBB permeation, the ranges of permeability were established, as follows. Compounds of high BBB permeation (CNS+): Pe (10^−6 cm s^−1)>5.26; compounds of low BBB permeation (CNS−): Pe (10^−6 cm s^−1)<1.91; and compounds of uncertain BBB permeation (CNS+/−): 5.26>Pe (10^−6 cm s^−1)>1.91. The permeability results are averages of three different experiments in triplicate and a predictive penetration in the CNS is also given (Table 5).

Data set [3] addresses T2, recombinant human sEH (hsEH) (Homo sapiens, UniProt P34913).
T2 sequence (P34913 1-555): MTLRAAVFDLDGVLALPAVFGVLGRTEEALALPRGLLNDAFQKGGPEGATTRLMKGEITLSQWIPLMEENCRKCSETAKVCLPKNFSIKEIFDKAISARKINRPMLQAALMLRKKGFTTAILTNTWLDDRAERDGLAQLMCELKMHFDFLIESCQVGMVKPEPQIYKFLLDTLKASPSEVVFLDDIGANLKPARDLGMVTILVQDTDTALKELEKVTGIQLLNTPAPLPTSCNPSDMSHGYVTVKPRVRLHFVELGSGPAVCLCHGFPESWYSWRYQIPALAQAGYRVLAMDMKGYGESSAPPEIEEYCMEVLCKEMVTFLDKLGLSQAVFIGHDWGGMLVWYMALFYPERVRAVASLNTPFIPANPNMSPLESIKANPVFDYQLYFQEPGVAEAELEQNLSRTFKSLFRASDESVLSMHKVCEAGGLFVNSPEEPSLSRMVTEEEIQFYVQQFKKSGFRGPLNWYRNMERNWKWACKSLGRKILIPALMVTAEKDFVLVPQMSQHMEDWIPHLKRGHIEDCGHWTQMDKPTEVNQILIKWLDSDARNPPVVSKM
Briefly: In vitro determination of sEH inhibitory activity (fluorescent PHOME assay).
Experimental: Control compound (TPPU): N-[1-(1-Oxopropyl)-4-piperidinyl]-N′-[4-(trifluoromethoxy)phenyl]urea.
Five μL of DMSO were added to background and positive control wells, and then 5 μL of inhibitor solution were added in the inhibitor wells. Five μL of the solution of hsEH were added to the positive control and inhibitor wells and the mixture was stirred. A 1/21 dilution of the solution of PHOME with assay buffer was prepared according to the final volume required, and then 105 μL of each well were added. The plate was carefully shaken for 10 seconds and was incubated for 5 minutes at room temperature. […] The intensity of fluorescence was used to analyze and calculate the IC50 values. Results were obtained by regression analysis from at least three data points in a linear region of the curve. IC50 values are average of minimum three independent replicates.

This passage reports IC50, Papp and CNS prediction results from patent publication US20260092039A1, “DUAL INHIBITORS FOR THE TREATMENT OF ALZHEIMER'S DISEASE” (UNIVERSITAT DE BARCELONA, priority 2023, published 2026).

As a reminder, the IC50 is the concentration that inhibits the measured activity by half.

T1 sequence (Q16769 29-361): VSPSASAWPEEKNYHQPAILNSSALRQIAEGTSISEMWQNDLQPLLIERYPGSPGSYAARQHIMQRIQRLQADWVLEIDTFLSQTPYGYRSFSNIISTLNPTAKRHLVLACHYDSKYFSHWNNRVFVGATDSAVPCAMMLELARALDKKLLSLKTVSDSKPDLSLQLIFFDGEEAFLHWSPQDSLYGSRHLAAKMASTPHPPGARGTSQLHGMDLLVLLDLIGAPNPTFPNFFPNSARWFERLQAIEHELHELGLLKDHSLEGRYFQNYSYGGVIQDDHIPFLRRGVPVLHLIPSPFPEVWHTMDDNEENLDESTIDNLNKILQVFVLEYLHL

In the case of `Cc1cncn1CCCNC(=O)NC12CC3CC(CC(C3)C1)C2` [Ia, 1-(adamantan-1-yl)-3-[3-(5-methyl-1H-imidazol-1-yl)propyl]urea], the IC50 in data set [1] came to 610 nM. For the same compound, in data set [2], the Papp came out at 7.1 ×10⁻⁶ cm/s and the CNS prediction entry was “CNS+ (Compounds of high BBB permeation (CNS+): Pe (10^−6 cm s^−1)>5.26)”. The concentration for half-maximal inhibition (IC50) in data set [3] was determined as 35 nM.
The corresponding values for `Cc1cncn1CCCNC(=O)NCC12CC3CC(CC(C3)C1)C2` [Ik, 1-[(adamantan-1-yl)methyl]-3-[3-(5-methyl-1H-imidazol-1-yl)propyl]urea] are 730 nM, 14.1 ×10⁻⁶ cm/s, “CNS+ (Compounds of high BBB permeation (CNS+): Pe (10^−6 cm s^−1)>5.26)” and 9 nM.
The corresponding values for `O=C(NCCCn1ccnc1)NC1C2CC3CC(C2)CC1C3` (stereo not shown) [Ij, 1-[3-(1H-imidazol-1-yl)propyl]-3-(adamantan-2-yl)urea] are 5200 nM, 9.4 ×10⁻⁶ cm/s, “CNS+ (Compounds of high BBB permeation (CNS+): Pe (10^−6 cm s^−1)>5.26)” and 45 nM.
The corresponding values for `Cc1cncn1CCCNC(=O)N(C)C1C2CC3CC(C2)CC1C3` (stereo not shown) [Iy, 1-(adamantan-2-yl)-1-methyl-3-[3-(5-methyl-1H-imidazol-1-yl)propyl]urea] are 205 nM, 9.8 ×10⁻⁶ cm/s, “CNS+ (Compounds of high BBB permeation (CNS+): Pe (10^−6 cm s^−1)>5.26)” and 23 nM.
For the compound `O=C(NCCCn1ccnc1)NCC12CC3CC(CC(C3)C1)C2` [Im, 1-[3-(1H-imidazol-1-yl)propyl]-3-[(adamantan-1-yl)methyl]urea], the concentration for half-maximal inhibition (IC50) in data set [1] came to 3500 nM. In data set [2], the Papp is 11.8 ×10⁻⁶ cm/s and the CNS prediction result is “CNS+ (Compounds of high BBB permeation (CNS+): Pe (10^−6 cm s^−1)>5.26)”. Further, the IC50 in data set [3] was determined as 300 nM.
The corresponding values for `Cc1cncn1CCCNC(=O)N[C@H]1C2CC3CC1C[C@](F)(C3)C2` [Iac, trans-1-(5-fluoroadamantan-2-yl)-3-[3-(5-methyl-1H-imidazol-1-yl)propyl]urea] are 236 nM, 8.6 ×10⁻⁶ cm/s, “CNS+ (Compounds of high BBB permeation (CNS+): Pe (10^−6 cm s^−1)>5.26)” and 20 nM.
Take `Cc1cncn1CCCNC(=O)NC1C2CC3CC(C2)CC1(Cl)C3` (racemic) [Iz, (±)-1-(1-chloroadamantan-2-yl)-3-[3-(5-methyl-1H-imidazol-1-yl)propyl]urea]: the IC50 in data set [1] worked out at 496 nM. Also, in data set [2], the Papp stood at 6 ×10⁻⁶ cm/s and the CNS prediction result is recorded as “CNS+ (Compounds of high BBB permeation (CNS+): Pe (10^−6 cm s^−1)>5.26)”. Moreover, the 50% inhibitory concentration (IC50) in data set [3] was 30 nM.
